According to patent US9709555B2, “Compound for generating second harmonic of light, dye composition for generating second harmonic of light, and cell examination method” (KEIO UNIVERSITY, priority 2013, dated 2017):
Values after ≈ are worked out from the molar mass of the structure shown. “Also recorded” adds a separate entry of the source.

What was measured:
[1] = Evaluation of solubility of dyes; type: physicochemical; settings: for Dissolving in DMSO: DMSO added to a dye concentration of about 100 mM; for Solubility (μM) / solubility: solubility into a buffer, DMSO solution diluted 1000 times with extracellular fluid; for solubility: extracellular fluid (Artificial Cerebrospinal Fluid), aqueous buffer, kinetic from dmso stock; for Solubility into a buffer: result in words
Description: Furthermore, using anionic, neutral, zwitter, and dicationic dyes shown in Table 1, solubility into a buffer, toxicity, and presence or absence of SHG and TPF signals when applied to cultured cells (CHO cells) were evaluated, respectively. Herein, the dyes #1 to 5 are dyes for generating a second harmonic of light outside of the range of the present invention, and the dyes #6 and 7 are dyes for generating a second harmonic of light within the range of the present invention.
DMSO (dimethyl sulfoxide) was added to the synthesized dye group (dyes #1 to #7) in Table 2 to have a concentration of a dye at about 100 mM and dissolving was attempted.
(§1) DMSO solutions of the dyes #1 to #3, #4, #5 and Ap3 were diluted 1000 times using an extracellular fluid (Artificial Cerebrospinal Fluid), and when all were assumed to be dissolved, the final concentration was set at about 100 μM.

CHO cells [2] = test: Evaluation of SHG and TPF signals of dyes applied to CHO cells; type: cell-based, Chinese Hamster; settings: about 100 μM dye, pulse laser at 1,000 nm, qualitative comparison
Description: as §1
A CHO (Chinese Hamster Ovary) cell cultured on a cover glass was used as an observation subject, immersed into the above described dye solution to try dyeing a cell membrane, and directly observed under a microscope within several minutes.
A multiphoton laser microscope system (FV1000MPE manufactured by Olympus Corporation) on which an ultrashort femtosecond laser (MaitaiHP manufactured by Newport) was mounted was used for the observation, and SHG and two-photon fluorescence (Two-Photon Fluorescence: TPF) after irradiation by a pulse laser at 1,000 nm were observed under the same detection condition for each dye. Three images were obtained by changing fields of view per each dye, and signal intensities were qualitatively compared among the dyes. FIGS. 4 to 6 show images of Comparative Examples 4 to 6, and FIGS. 7 and 8 show images of Examples 2 and 3, respectively.

CHO cells [3] = test: Evaluation of cytotoxicity of dyes (cell forms before and after dyeing); type: cell-based, Chinese Hamster; settings: cell form before and after dyeing, differential interference figure
Description: For evaluation of cytotoxicity due to a dye, cell forms before and after dyeing were confirmed from a differential interference figure using near-infrared light. Cytotoxicity was evaluated by particularly focusing on two points that 1) a cell having an extended structure due to interaction with an extracellular matrix loses its adhesion to thus separate from a cover glass and is rounded, and 2) a cell membrane having a smooth form becomes an inhomogeneous and uneven form, when the physiological condition of the cell deteriorates.

[4] = tested on: cultured human normal astrocyte; test: SHG and TPF imaging of dye introduced into cultured human normal astrocyte; type: cell-based; settings: 100 μM dye in buffer, introduced by pipette, 1,000 nm exciting light; for SHG signal: SHG at 500 nm
Description: A buffer containing 100 μM of FM4-64 was prepared and introduced into a cultured human normal astrocyte using a pipette. The dye that was introduced into the cell spreads throughout the entire cell over time.
For the measurement, a multiphoton microscope capable of SHG imaging and TPF imaging obtained by incorporating a tunable femtosecond mode synchronous infrared laser into a commercially available confocal laser scanning microscope was used as the light source. By irradiating with 1,000 nm of exciting light, an SHG signal light having a wavelength of 500 nm is generated from the dye in the same direction as the direction in which an infrared pulse laser travels. The signal can be detected in a photomultiplier tube provided on the laser light traveling direction side. A back scattered component of the TPF signal light is also observed by irradiating with the same exciting light.
SHG and TPF imaging was carried out in the same manner as Comparative Example 1 except for using Ap1 to Ap3 as dyes, and these cases were Comparative Examples 2 and 3 and Example 1, respectively.

nerve cell = settings: dye introduced from the cell exterior, femtosecond laser; cited from earlier work

| Dissolving in DMSO [1] | Solubility (μM) [1] | solubility [1] | Solubility into a buffer [1] | Compound | SHG signal (CHO cells [2]) | TPF signal (CHO cells [2]) | Toxicity (CHO cells [3]) | TPF signal [4] | SHG signal [4] | Fluorescent (TPF) signal (nerve cell) | SHG signal (nerve cell) |
| --- | --- | --- | --- | --- | --- | --- | --- | --- | --- | --- | --- |
| no dissolving | Insoluble |  |  | CCCCCCN(CCCCCC)c1ccc(/N=N/c2ccc(C=O)cc2)cc1 [#4] | not obtained at all | not obtained at all |  |  |  |  |  |
| no dissolving | Insoluble |  |  | CCCCCCN(CCCCCC)c1ccc(/N=N/c2ccc(C=C(C#N)C#N)cc2)cc1 [#5] | not obtained at all | not obtained at all |  |  |  |  |  |
|  |  | 100 µM | no problem | CCCCCCN(CCCCCC)c1ccc(/N=N/c2cc[n+](CCC[N+](CC)(CC)CC)cc2)cc1 [Ap3] | observed and Good | not observed and None | no problem; also recorded: Little | not observed | can be observed |  |  |
| easily dissolved |  | ~100 µM (≈ 50.2 µg/mL) |  | CCCCCCCCN(CCCCCCCC)c1ccc(/N=N/c2ccc(S(=O)(=O)O)cc2)cc1 [#3] | Good | None | Some |  |  |  |  |
| easily dissolved |  | ~100 µM (≈ 44.6 µg/mL) |  | CCCCCCN(CCCCCC)c1ccc(/N=N/c2ccc(S(=O)(=O)O)cc2)cc1 [#2] | Good | None | High |  |  |  |  |
| easily dissolved |  | ~100 µM (≈ 39 µg/mL) |  | CCCCN(CCCC)c1ccc(/N=N/c2ccc(S(=O)(=O)O)cc2)cc1 [#1] | Good | None | High |  |  |  |  |
|  |  |  |  | CCN(CC)c1ccc(/C=C/C=C/C=C/c2cc[n+](CCC[N+](CC)(CC)CC)cc2)cc1 [FM4-64, reference compound] |  |  |  | observed | observed | detected | very strong |
| poor solubility |  | < 100 µM | no problem | CCCCCCCCN(CCCCCCCC)c1ccc(/N=N/c2cc[n+](CCCS(=O)(=O)[O-])cc2)cc1 [#7, (E)-3-(4-((4-(dioctylamino)phenyl)diazenyl)pyridin-1-ium-1-yl)propane-1-sulfonate] | observed and Fine | not observed and None | no problem; also recorded: Little |  |  |  |  |
| poor solubility |  | < 100 µM | no problem | CCCCCCN(CCCCCC)c1ccc(/N=N/c2cc[n+](CCCS(=O)(=O)[O-])cc2)cc1 [#6, (E)-3-(4-((4-(dihexylamino)phenyl)diazenyl)pyridin-1-ium-1-yl)propane-1-sulfonate] | observed and Fine | not observed and None | no problem; also recorded: Little |  |  |  |  |
